Our source for the EC50 and IC50 values is patent US9453031B2, “Chemical entities” (Fundación Centro Nacional de Investigaciones Oncológicas …, priority 2013, dated 2016).

Each structure is given as a SMILES string.

Sequence of ATR (Q13535 whole entry): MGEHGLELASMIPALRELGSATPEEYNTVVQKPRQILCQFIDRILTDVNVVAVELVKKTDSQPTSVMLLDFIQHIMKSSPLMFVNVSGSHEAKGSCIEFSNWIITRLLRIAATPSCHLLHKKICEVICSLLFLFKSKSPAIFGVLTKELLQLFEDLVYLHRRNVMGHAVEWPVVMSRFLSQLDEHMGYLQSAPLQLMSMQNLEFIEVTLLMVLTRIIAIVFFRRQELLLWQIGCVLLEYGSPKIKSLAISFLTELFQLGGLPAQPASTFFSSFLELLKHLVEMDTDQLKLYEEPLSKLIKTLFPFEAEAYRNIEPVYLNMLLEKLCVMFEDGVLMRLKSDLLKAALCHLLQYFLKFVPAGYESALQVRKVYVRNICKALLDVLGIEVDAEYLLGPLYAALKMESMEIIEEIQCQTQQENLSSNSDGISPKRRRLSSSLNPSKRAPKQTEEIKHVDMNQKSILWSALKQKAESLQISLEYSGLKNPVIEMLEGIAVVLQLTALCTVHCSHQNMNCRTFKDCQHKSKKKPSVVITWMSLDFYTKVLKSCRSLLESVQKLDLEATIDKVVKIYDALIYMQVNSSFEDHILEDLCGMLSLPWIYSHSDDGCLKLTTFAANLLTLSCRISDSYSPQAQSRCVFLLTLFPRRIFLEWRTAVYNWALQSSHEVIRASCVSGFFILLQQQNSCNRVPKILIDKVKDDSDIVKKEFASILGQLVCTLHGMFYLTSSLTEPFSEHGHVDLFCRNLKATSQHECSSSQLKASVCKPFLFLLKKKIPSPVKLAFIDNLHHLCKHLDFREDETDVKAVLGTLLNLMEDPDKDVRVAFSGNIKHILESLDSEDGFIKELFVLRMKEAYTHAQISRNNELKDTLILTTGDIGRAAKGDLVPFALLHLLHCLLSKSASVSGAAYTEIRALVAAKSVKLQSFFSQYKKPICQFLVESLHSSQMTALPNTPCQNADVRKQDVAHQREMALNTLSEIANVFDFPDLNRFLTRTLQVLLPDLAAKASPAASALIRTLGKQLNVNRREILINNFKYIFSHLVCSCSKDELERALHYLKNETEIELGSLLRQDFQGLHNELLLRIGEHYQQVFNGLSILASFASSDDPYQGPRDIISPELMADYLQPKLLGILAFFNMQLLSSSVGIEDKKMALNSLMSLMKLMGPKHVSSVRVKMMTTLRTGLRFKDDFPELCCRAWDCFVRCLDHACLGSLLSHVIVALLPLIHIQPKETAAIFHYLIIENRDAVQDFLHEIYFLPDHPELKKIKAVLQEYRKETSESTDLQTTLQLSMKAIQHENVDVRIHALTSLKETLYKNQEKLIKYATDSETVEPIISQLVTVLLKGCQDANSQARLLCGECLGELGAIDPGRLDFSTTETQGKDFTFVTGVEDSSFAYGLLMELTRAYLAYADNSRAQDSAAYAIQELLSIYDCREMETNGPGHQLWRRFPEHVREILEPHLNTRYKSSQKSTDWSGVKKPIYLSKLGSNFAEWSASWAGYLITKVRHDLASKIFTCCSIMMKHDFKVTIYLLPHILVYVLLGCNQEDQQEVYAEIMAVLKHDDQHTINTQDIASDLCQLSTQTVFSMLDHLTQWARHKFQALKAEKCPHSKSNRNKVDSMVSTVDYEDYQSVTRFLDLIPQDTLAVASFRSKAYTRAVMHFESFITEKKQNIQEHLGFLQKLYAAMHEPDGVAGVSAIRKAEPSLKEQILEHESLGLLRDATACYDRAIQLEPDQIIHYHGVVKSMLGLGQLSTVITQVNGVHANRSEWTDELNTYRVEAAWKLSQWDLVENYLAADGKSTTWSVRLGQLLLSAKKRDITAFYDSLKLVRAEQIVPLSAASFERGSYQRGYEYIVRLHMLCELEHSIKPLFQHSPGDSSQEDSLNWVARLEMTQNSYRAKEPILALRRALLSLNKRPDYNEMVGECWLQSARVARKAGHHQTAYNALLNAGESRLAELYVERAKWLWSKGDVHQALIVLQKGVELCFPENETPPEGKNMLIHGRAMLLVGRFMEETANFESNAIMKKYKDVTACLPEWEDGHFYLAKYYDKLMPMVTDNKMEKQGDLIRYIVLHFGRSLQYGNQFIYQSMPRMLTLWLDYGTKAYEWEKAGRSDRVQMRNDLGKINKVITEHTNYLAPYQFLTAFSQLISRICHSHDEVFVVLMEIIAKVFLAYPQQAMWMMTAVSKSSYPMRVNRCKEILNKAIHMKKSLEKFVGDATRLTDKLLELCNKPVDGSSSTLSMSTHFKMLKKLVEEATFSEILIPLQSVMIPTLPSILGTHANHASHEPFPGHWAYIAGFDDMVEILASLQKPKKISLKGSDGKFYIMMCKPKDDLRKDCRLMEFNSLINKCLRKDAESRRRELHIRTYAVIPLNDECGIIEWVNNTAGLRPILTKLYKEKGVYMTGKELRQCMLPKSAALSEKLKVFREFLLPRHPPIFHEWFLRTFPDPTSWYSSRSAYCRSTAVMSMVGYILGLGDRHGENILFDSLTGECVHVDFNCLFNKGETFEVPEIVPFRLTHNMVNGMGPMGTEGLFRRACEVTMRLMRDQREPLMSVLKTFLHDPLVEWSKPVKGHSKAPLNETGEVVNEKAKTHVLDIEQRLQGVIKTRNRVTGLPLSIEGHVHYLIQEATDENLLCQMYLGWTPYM

The first test concerns the target ATR (Homo sapiens (Human), UniProt Q13535). The test can be described thus: Cellular ATR inhibition, western blot of CHK1(S345) phosphorylation in hydroxyurea treated cells. The conditions noted are these: HT29 cells, hydroxyurea 2.5 mM. The test is classed as cell-based. As for the experimental part: In addition to the selective system described above, Example compounds presented here were screened for their ability to inhibit intracellular ATR using a western blot assay to detect phosphorylation of the ATR substrate CHK1(S345) in hydroxyurea treated cells. HT29 cells are plated at 500,000 cells per well in 6-well plates in RPMI media (Sigma R6504) supplemented with 10% foetal bovine serum (Sigma F7524), Penicillin/Streptomycin solution diluted 1:100 (Gibco 15070-063), and fungizone (Gibco, 15290-018), and allowed to adhere overnight at 37° C. in 5% CO2. Compounds are then added to the cell media from a final concentration of 10 μM in 3-fold serial dilutions and the cells are incubated at 37° C. in 5% CO2. After 15 min, hydroxyurea (Sigma H8627) is added to a final concentration of 2.5 mM. After 30 min of treatment with hydroxyurea, the cells are washed in PBS, lysed adding 50 μl of in protein lysis buffer (50 mM Tris pH 7.5, 150 mM NaCl, 1% IGEPAL CO-630 (Sigma, Ref. 542334-100G-A), Phospho Stop (Roche, Ref. 04906837001) and Complete Mini EDTA free (Roche, Ref. 11836170001)). The protein content of the lysates was determined by the modified method of Bradford (Sigma, Ref. B6916). The proteins were resolved by SDS-PAGE and transferred to nitrocellulose membrane (VWR International Eurolab, Ref. 732-4007). The membranes were incubated overnight at 4° C. with antibodies specific for total CHK1 (Santa Cruz Biotechnology, sc-8404), phosphoserine-345 CHK1 (Cell Signaling Technology #2348) they were washed and then incubated with IRDye800 conjugated anti-mouse (Pierce/Cultek, 35521) and Alexa Fluor 680 goat anti-rabbit IgG secondary antibodies (Invitrogen, A21076). The bands were visualized and quantified using an Odyssey infrared imaging system (Li-Cor Biosciences). The percentage of phosphorylated CHK1 vs total CHK1 in cells treated with hydroxyurea was taken as hundred percent of phosphorylation. The percentage of CHK1 phosphorylation is finally plotted against concentration for each compound and EC50s for intracellular ATR inhibition are calculated using ActivityBase from IDBS.
In the case of `CS(=O)(=O)C1(c2nc(-c3cccc4[nH]ccc34)nc3c2OCC[C@@H]2COCCN32)CCOCC1` [Example 22], the EC50 was 100 to 1000 nM.
In turn, `COc1cc(-c2nc3c(c(C4(S(C)(=O)=O)CCC4)n2)OC[C@@H]2COCCN32)c2cc[nH]c2c1` [Example 78] yielded an EC50 below 100 nM.
Same read-out and setting: then `C[S@TB17](=O)(=O)Nc1nc(-c2cccc3[nH]ccc23)nc2c1OCC1COCCN21` (stereo not drawn) [Example 35], with above 1000 nM; and `CNc1nc2cc(Cl)ccc2n1-c1nc2c(c(C3(S(C)(=O)=O)CCC3)n1)OC[C@@H]1COCCN21` [Example 94], with above 1000 nM; and `CCOC(=O)N1CCC(c2nc(-c3cccc4[nH]ccc34)nc3c2OC[C@@H]2COCCN32)(S(C)(=O)=O)CC1` [Example 68], with 100 to 1000 nM.
The same measure, in the same setting: the same measure for `CC1(c2nc(-c3cccc4[nH]ccc34)nc3c2OCC2COCCN32)CCCS1(=O)=O` (stereo not drawn) [Example 41]: 100 to 1000 nM; for `CS(=O)(=O)C1(c2nc(-c3cc(F)cc4[nH]ccc34)nc3c2OCC2COCCN32)CCOCC1` (stereo not drawn) [Example 17]: below 100 nM; for `CNc1nc2ccccc2n1-c1nc2c(c(C3(S(C)(=O)=O)CCOCC3)n1)OCC1COCCN21` (stereo not drawn) [Example 12]: 100 to 1000 nM.
The same measure, in the same setting: the same measure for `CC(C)(c1nc(-c2cccc3[nH]ncc23)nc2c1OC[C@H]1COCCN21)S(C)(=O)=O` [Example 21]: above 1000 nM; for `CS(=O)(=O)Cc1nc(-c2cccc3[nH]ccc23)nc2c1OCC1COCCN21` (stereo not drawn) [Example 7]: 100 to 1000 nM.
As for `CC(C)(c1nc(-c2c(F)ccc3[nH]ccc23)nc2c1OCC1COCCN21)S(C)(=O)=O` (stereo not drawn) [Example 14], the 50% effective concentration (EC50) was 100 to 1000 nM.
Still for that read-out and setting: then `CS(=O)(=O)C1(c2nc(-c3ccnc4[nH]ccc34)nc3c2OCC2COCCN32)CCOCC1` (stereo not drawn) [Example 18], with below 100 nM; and `CC(C)(c1nc(-c2ccnc3[nH]ccc23)nc2c1OCC1COCCN21)S(C)(=O)=O` (stereo not drawn) [Example 16], with 100 to 1000 nM.
Still for that read-out and setting: then `CCCNc1nc2ccccc2n1-c1nc2c(c(C(C)(C)S(C)(=O)=O)n1)OC[C@@H]1COCCN21` [Example 65], with below 100 nM; and `CNc1nc2ccccc2n1-c1nc2c(c(C3(S(C)(=O)=O)CCOCC3)n1)OCCC1COCCN21` (stereo not drawn) [Example 32], with above 1000 nM.
Still for that read-out and setting: the same measure for `CN1CCC(c2nc(-c3cccc4[nH]ccc34)nc3c2OCC2COCCN32)(S(C)(=O)=O)CC1` (stereo not drawn) [Example 36]: above 1000 nM; for `CS(=O)(=O)C1(c2nc(-c3c(F)ccc4[nH]ccc34)nc3c2OCC2COCCN32)CCOCC1` (stereo not drawn) [Example 13]: 100 to 1000 nM; for `CNc1nc2ccccc2n1-c1nc2c(c(C(C)(C)[S@TB1](C)(=O)=O)n1)OCCC1COCCN21` (stereo not drawn) [Example 31]: below 100 nM.
`CNc1nc2ccc(Cl)cc2n1-c1nc2c(c(C3(S(C)(=O)=O)CCC3)n1)OC[C@@H]1COCCN21` [Example 95] registered an EC50 above 1000 nM.
Same read-out and setting: then `CS(=O)(=O)C1(c2nc(-c3cccc4[nH]ccc34)nc3c2OCC2COCCN32)CC1` (stereo not drawn) [Example 27], with 100 to 1000 nM; and `CCNc1nc2ccccc2n1-c1nc2c(c(C(C)(C)S(C)(=O)=O)n1)OC[C@@H]1COCCN21` [Example 64], with 100 to 1000 nM; and `C[S@TB17](=O)(=O)C1(c2nc(-c3cc(F)cc4[nH]ccc34)nc3c2OCCC2COCCN32)CCOCC1` (stereo not drawn) [Example 33], with 100 to 1000 nM.
Turning to `COc1ccc(-c2nc3c(c(C4(S(C)(=O)=O)CCOCC4)n2)OCC2COCCN32)c2cc[nH]c12` (stereo not drawn) [Example 37], the EC50 lay in the range of 100 to 1000 nM.
Same read-out and setting: then `CS(=O)(=O)C1(c2nc(-c3ccc(F)c4[nH]ccc34)nc3c2OC[C@@H]2COCCN32)CCC1` [Example 76], with above 1000 nM.
Same read-out and setting: then `CS(=O)(=O)C1(c2nc(-c3cccc4[nH]ccc34)nc3c2OC[C@@H]2COCCN32)CCNCC1` [Example 69], with 100 to 1000 nM; and `c1cc(-c2nc(-c3cccc4[nH]ccc34)c3c(n2)N2CCOCC2CO3)c2cc[nH]c2c1` (stereo not drawn) [Example 42], with 100 to 1000 nM; and `CS(=O)(=O)c1cccc(-c2nc(-c3cccc4[nH]ccc34)nc3c2OCC2COCCN32)c1` (stereo not drawn) [Example 43], with 100 to 1000 nM.
Still for that read-out and setting: then `CC(C)(c1nc(-c2cccc3[nH]ccc23)nc2c1OCC[C@@H]1COCCN21)S(C)(=O)=O` [Example 25], with 100 to 1000 nM.
`CC(C)(C#N)c1nc(-c2cccc3[nH]ccc23)nc2c1OCC1COCCN21` (stereo not drawn) [Example 40] displayed an EC50 of 100 to 1000 nM.
The same measure, in the same setting: the same measure for `CN(C)c1nc2ccccc2n1-c1nc2c(c(C(C)(C)S(C)(=O)=O)n1)OC[C@@H]1COCCN21` [Example 79]: 100 to 1000 nM; for `Cc1cc2c(-c3nc4c(c(C5(S(C)(=O)=O)CCOCC5)n3)OCC3COCCN43)cccc2[nH]1` (stereo not drawn) [Example 20]: 100 to 1000 nM; for `CS(=O)(=O)C1(c2nc(-c3cncc4[nH]ccc34)nc3c2OCC2COCCN32)CCOCC1` (stereo not drawn) [Example 9]: 100 to 1000 nM.
On the same count and under the same terms, the same measure for `CC(C)(c1nc(-c2cccc3[nH]ccc23)nc2c1OCC1COCCN21)S(=O)(=O)C1CC1` (stereo not drawn) [Example 4]: below 100 nM; for `CC(C)(c1nc(-c2cccc3[nH]ccc23)nc2c1OCC[C@H]1COCCN21)S(C)(=O)=O` [Example 24]: 100 to 1000 nM.
For the compound `CC(C)(O)c1nc(-c2cccc3[nH]ccc23)nc2c1OCC1COCCN21` (stereo not drawn) [Example 38], the 50% effective concentration (EC50) was 100 to 1000 nM.
As to `CC(C)Nc1nc2ccccc2n1-c1nc2c(c(C(C)(C)S(C)(=O)=O)n1)OC[C@@H]1COCCN21` [Example 63], the EC50 was below 100 nM.
Same read-out and setting: then `CS(=O)(=O)C1(c2nc(-c3cccc4[nH]ccc34)nc3c2OC[C@@H]2COCCN32)CCC1` [Example 67], with below 100 nM.
Still for that read-out and setting: the same measure for `COc1cc(-c2nc3c(c(C4([S@TB1](C)(=O)=O)CCOCC4)n2)OCCC2COCCN32)c2cc[nH]c2c1` (stereo not drawn) [Example 34]: 100 to 1000 nM; for `CNc1nc2ccccc2n1-c1nc2c(c(C(C)(C)O)n1)OCC1COCCN21` (stereo not drawn) [Example 39]: 100 to 1000 nM.
Same read-out and setting: the same measure for `COc1cc(-c2nc3c(c(C4(S(C)(=O)=O)CCOCC4)n2)OCC2COCCN32)c2cc[nH]c2c1` (stereo not drawn) [Example 19]: below 100 nM.
Compound `CC(C)(O)c1nc(-c2cc(F)cc3[nH]ccc23)nc2c1OC[C@@H]1COCCN21` [Example 45] came in with an EC50 of 100 to 1000 nM.

The same test, now with this note: HT29 cells, hydroxyurea […].
Regarding `CNc1nc2cc(C#N)ccc2n1-c1nc2c(c(C(C)(C)S(C)(=O)=O)n1)OC[C@@H]1COCCN21` [Example 113], the EC50 was above 1000 nM.

In the next test the target is PI3K (p110α/p85α) (Homo sapiens (Human), UniProt P42336). In words: PI3K alpha activity assay (ADP Hunter Plus). The test is classed as biochemical. The conditions noted are these: 50 μM ATP, 30 μM PIP2; read-out: PI3Kα IC50. On the procedure: The kinase activity was measured by using the commercial ADP Hunter™ Plus assay available from DiscoveRx (#33-016), which is a homogeneous assay to measure the accumulation of ADP, a universal product of kinase activity. […] The reaction was carried out for 1 hour at 25° C. Reagent A and B were sequentially added to the wells and plates were incubated for 30 min at 37° C. Fluorescence counts were read in a Victor instrument (Perkin Elmer) with the recommended settings (544 and 580 nm as excitation and emission wavelengths, respectively).
Sequence of PI3K (p110α/p85α) (P42336 whole entry): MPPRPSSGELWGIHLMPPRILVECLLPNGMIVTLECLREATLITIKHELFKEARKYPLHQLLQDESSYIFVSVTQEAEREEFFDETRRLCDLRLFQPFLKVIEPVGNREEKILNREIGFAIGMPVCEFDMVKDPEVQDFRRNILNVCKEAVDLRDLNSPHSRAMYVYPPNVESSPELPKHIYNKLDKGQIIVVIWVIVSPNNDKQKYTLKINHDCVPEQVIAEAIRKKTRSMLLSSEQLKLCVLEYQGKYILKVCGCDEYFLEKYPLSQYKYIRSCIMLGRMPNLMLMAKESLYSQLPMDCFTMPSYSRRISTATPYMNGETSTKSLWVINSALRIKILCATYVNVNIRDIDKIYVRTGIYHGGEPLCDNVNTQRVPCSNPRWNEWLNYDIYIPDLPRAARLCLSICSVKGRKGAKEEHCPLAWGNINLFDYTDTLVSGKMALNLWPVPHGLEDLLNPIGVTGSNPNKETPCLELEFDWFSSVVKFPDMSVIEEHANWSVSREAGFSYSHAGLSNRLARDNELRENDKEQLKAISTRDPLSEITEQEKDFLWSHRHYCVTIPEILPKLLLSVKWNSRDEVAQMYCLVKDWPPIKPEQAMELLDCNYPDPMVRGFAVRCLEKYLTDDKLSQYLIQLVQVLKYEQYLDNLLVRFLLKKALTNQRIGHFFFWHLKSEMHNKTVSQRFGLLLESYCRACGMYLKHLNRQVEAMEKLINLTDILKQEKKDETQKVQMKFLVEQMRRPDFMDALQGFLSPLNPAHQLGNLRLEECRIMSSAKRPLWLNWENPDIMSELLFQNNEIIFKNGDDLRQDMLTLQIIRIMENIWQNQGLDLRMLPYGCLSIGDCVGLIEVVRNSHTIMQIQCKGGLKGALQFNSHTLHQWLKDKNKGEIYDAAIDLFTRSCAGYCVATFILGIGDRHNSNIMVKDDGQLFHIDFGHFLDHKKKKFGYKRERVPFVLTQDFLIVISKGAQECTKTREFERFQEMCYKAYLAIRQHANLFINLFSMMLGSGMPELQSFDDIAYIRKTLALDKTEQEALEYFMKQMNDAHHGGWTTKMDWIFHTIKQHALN
Sequence of PI3K (p110α/p85α) (P27986 whole entry partner): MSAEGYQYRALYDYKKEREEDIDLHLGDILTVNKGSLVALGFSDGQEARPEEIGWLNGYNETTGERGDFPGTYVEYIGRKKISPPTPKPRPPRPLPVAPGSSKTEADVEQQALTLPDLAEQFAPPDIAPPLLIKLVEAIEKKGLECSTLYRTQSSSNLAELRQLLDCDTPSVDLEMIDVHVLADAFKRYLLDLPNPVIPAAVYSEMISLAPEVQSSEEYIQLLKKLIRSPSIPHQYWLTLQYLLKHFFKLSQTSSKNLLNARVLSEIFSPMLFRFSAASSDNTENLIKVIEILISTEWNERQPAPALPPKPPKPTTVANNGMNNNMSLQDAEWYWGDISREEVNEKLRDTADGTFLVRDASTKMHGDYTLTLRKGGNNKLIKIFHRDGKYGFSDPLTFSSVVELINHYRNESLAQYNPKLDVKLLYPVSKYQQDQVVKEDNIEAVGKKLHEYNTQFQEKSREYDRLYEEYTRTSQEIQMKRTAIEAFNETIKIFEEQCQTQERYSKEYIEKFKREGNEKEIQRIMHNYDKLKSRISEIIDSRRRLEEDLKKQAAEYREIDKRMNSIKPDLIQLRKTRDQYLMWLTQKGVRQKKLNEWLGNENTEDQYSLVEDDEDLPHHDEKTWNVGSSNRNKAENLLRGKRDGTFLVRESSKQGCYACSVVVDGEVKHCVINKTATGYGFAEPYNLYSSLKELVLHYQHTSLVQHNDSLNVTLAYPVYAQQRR
`COc1cc(-c2nc3c(c(C4(S(C)(=O)=O)CCC4)n2)OC[C@@H]2COCCN32)c2cc[nH]c2c1` [Example 78]: the IC50 worked out at 4490 nM.
On the same count and under the same terms, the same measure for `CS(=O)(=O)C1(c2nc(-c3ccc(F)c4[nH]ccc34)nc3c2OC[C@@H]2COCCN32)CCC1` [Example 76]: 50000 nM; for `CC(C)(c1nc(-c2cccc3[nH]ccc23)nc2c1OCC[C@@H]1COCCN21)S(C)(=O)=O` [Example 25]: 23400 nM.
The same measure, in the same setting: the same measure for `CN(C)c1nc2ccccc2n1-c1nc2c(c(C(C)(C)S(C)(=O)=O)n1)OC[C@@H]1COCCN21` [Example 79]: 28600 nM.

A further test concerns the target mTOR (Homo sapiens (Human), UniProt P42345). The test can be described thus: mTOR activity assay (LanthaScreen). The test is classed as biochemical.
Conditions: not given
As for the experimental part:
The enzymatic mTOR activity was measured using a LanthaScreen™ kinase activity assay (Invitrogen). The enzyme was purchased from Invitrogen (PV4754), as well as the GFP-labelled substrate (4EBP1-GFP; PV4759) and the Tb-antip4EBP1(pThr46) antibody (PV4757). The assay was performed in 50 Mm HEPES buffer, pH 7.5, containing 1.5 mM MnCl2, 10 mM MgCl2, 1 mM EGTA, 2.5 mM DTT and 0.01% Tween-20. The concentration of the assay components were the following: 0.24 nM mTOR kinase, 400 nM 4EBP1-GFP, […] and serial dilutions of the compound (inhibitor) to be evaluated. After 1 h incubation at room temperature, 20 mM EDTA was used to stop the reaction and terbium-labelled antibody (4 nM) added to detect phosphorylated product. The antibody associates with the phosphorylated product resulting in an increased TR-FRET value. The TR-FRET value (a dimensionless number) was calculated as the ratio of the acceptor signal (GFP, emission at 520 nm) to the donor signal (terbium, emission at 495 nm).
`COc1cc(-c2nc3c(c(C4(S(C)(=O)=O)CCC4)n2)OC[C@@H]2COCCN32)c2cc[nH]c2c1` [Example 78] displayed a half-inhibitory concentration (IC50) of 47 nM.
The same measure, in the same setting: then `CC(C)(c1nc(-c2cccc3[nH]ccc23)nc2c1OCC[C@@H]1COCCN21)S(C)(=O)=O` [Example 25], with 582 nM.
